Measurements: patent US20160030631A1, “Injectable Biodegradable Bone Matrix for Multiple Myeloma Lesion Augmentation and Osteoporosis” (THE UNIVERSITY OF TOLEDO, priority 2013, published 2016)
Where a SMILES comes first, the peptide text is derived from it. Bridges are numbered along the chain shown (N, C = ends). The star is where a group is joined. Cbz = O=C(OCc1ccccc1)*

Key:
RAW 264.7 culture = assay: Anti-osteoclastogenesis: cathespin K expression by real-time PCR; assay type: cell-based; conditions: MG132 released from cement; 5-day TNFalpha treatment
Protocol: The anti-osteoclastogenesis of MG132-loaded cement was tested after a 5-day treatment of TNFalpha in RAW 264.7 culture. In this case, expression of the marker gene cathespin K was measured by real-time PCR.

[1] = test system: pre-osteoclast RAW 264.7 cell culture; assay: TRAP+ cell staining for osteoclast activation with WP9QY-loaded cement; assay type: cell-based; conditions: WP9QY released from MWCNT/CPC or CPC; 5 days; TNFalpha stimulated; FIG. 6
Description: The MWCNT/CPC or CPC alone were loaded with WP9QY ([…], [SEQ ID NO: 1]), which is a peptide compound designed to compete ligand binding of RANK and to inhibit osteoclastogensis. The WP9QY peptide has a sequence of H-[…]OH [SEQ ID NO: 1], and was developed based on a structural analysis of the ligand binding site on TNF receptor 1 and RANK to inhibit osteoclast-activating. This cyclic peptide mimics the most critical tumor necrosis factor (TNF) recognition loop on TNF receptor 1, and prevents interaction of TNF with its receptor. The peptide was added directly to the cement paste to form the bone filler composition. Briefly, 100 μL of 1 mg/mL WP9QY was added into 0.5 mL DI water when mixing with 1 g of cement powder.
The cement pellet was washed with ethanol and left in a pre-osteoclast RAW 264.7 cell culture treated to trigger cell differentiation. To measure anti-osteoclast maturation of WP9QY released from the cement, the culture was stained for TRAP+ (osteoclast-like) cells after 5 days. TRAP+ cells are a marker for active osteoclasts after stimulated by the cytokine TNFalpha. The results, shown in FIG. 6, indicate that both composites can carry and release WP9QY.

Molecule	osteoclast maturation (cathespin K expression) (RAW 264.7 culture)	osteoclast activation (TRAP+ cells) [1]
CC(C)C[C@@H](C=O)NC(=O)[C@H](CC(C)C)NC(=O)[C@H](CC(C)C)NC(=O)OCc1ccccc1 [MG132] (Cbz-Leu-Leu-Leu-aldehyde)	osteoclast maturation can be inhibited	
H-Tyr-Cys-Trp-Ser-Gln-Tyr-Leu-Cys-Tyr-OH (H-YCWSQYLCY-OH; disulfide 2-8 (inferred)) [WP9QY]		osteoclast activation was inhibited
